The text below walks through data of ChEMBL document CHEMBL4842328, “A cyclic peptide inhibitor of the SARS-CoV-2 main protease” (Eur J Med Chem, 2021).

Data set [1] relates to Severe acute respiratory syndrome coronavirus 2. In words: Inhibition of SARS-CoV-2 main protease using K(Dabcy1)-TSAVLQSGFRKM-E-Edans-NH2 as substrate at <=750 uM preincubated with enzyme for 30 mins followed by substrate addition by FRET assay. The following applies: dose microM <=750, time 30.0 min.
Data set [2] in a line: Inhibition of SARS-CoV-2 main protease using K(Dabcy1)-TSAVLQSGFRKM-E-Edans-NH2 as substrate preincubated with enzyme for 30 mins followed by substrate addition by FRET assay. Also on record: species or system Severe acute respiratory syndrome coronavirus 2.
Data set [3] is described as follows: Stability of the compound assessed as SARS-CoV-2 main protease-mediated compound cleavage at 187.5 uM measured after 4 hrs by LC/MS analysis. In kind it is ADME. The note with it: severe acute respiratory syndrome coronavirus 2, 4 h.
Another data set concerns HEK293. Description: Cytotoxicity against human HEK293 assessed as reduction in cell viability upto 256 uM after 72 hrs by LDH assay. The data set is classed as cell-based. The following applies: hek293, 72 h.

Calls of active or inactive are those of the source. No cut-off for these calls is given here. Numbered stars: 1 amine (or outer) side, 2 acyl side, 3 side chain; on linkers, the order of the positions; unused ones are H or OH. Square brackets hold non-standard residues; d marks the D form. Peptide text beside a SMILES is read from it. * marks the point of attachment. X2 = O=C(Cc1ccc(CCN[*:1])cc1)[*:2]; X1 = NC(=O)Cc1ccc(CCN*)cc1

In the case of `CC(=O)N[C@@H](Cc1ccccc1)C(=O)N[C@@H](CCC(N)=O)C(=O)N[C@@H](CO)C(=O)N[C@@H](CCCCN)C(=O)NCCc1ccc(CC(N)=O)cc1` (Ac-FQSK-X1), the inhibition result in data set [1] was “inactive”. For the same molecule, the IC50 in data set [2] is > 1500 µM.

`NCCCC[C@@H]1NC(=O)[C@H](CO)NC(=O)[C@H](CCC(N)=O)NC(=O)[C@H](Cc2ccccc2)NC(=O)Cc2ccc(cc2)CCNC1=O.O=C(O)C(F)(F)F` (cyclo(FQSK[X2])): in data set [3], the Stabilty result is given as “Stable”. In the data set on HEK293, the Activity entry is reported as “Non-Toxic”.

For the molecule `NCCCC[C@@H]1NC(=O)[C@H](CO)NC(=O)[C@H](CCC(N)=O)NC(=O)[C@@H](Cc2ccccc2)NC(=O)Cc2ccc(cc2)CCNC1=O` (cyclo([dF]QSK[X2])), the half-inhibitory concentration (IC50) in data set [2] was > 1500 µM.

A word on the IC50: it is the concentration at which inhibition is half-maximal. The low end stands for greater potency in that assay, the high end for weaker potency in that assay.
